Our source for the IC50 values is patent publication US20190119282A1, “IMIDAZOPYRIDAZINES USEFUL AS INHIBITORS OF THE PAR-2 SIGNALING PATHWAY” (Vertex Pharmaceuticals Incorporated, priority 2013, published 2019).

Assay [1] addresses T1, PAR2 (HT-29 cells, SLIGKV activation) (Homo sapiens, UniProt P55085).
T1 construct: host or cells: HT-29 cells
T1 sequence (P55085 26-397): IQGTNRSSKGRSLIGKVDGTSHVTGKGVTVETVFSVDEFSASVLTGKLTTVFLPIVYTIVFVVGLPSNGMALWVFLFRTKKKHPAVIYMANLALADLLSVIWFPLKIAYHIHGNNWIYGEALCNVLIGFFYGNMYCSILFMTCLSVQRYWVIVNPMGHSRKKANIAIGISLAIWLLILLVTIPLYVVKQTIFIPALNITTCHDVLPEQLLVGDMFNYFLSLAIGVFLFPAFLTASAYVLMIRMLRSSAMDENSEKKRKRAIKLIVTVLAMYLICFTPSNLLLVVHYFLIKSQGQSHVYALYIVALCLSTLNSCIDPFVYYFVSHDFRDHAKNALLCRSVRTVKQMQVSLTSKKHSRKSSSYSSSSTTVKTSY
In words: Ca FLIPR TETRA assay, ANTAGONIST mode, stimulation with 8 μM SLIGKV. It counts as cell-based. The settings on record: HT-29 cells, antagonist mode. In a few lines:
(§1)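 Antagonist-mode assay: dye-loaded HT-29 cells, compound 30 min at r.t., then stimulated with final 8 μM SLIGKV, 3.1 U/mL trypsin, 1 U/mL thrombin or 0.6 μM UTP; calcium fluorescence read.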

Assay [2] has as its target T2, PAR2 (HT-29 cells, trypsin activation) (Homo sapiens, UniProt P55085).
T2 construct: host or cells: HT-29 cells
T2 sequence (P55085 26-397): T1 sequence (P55085 26-397)
In words: Ca FLIPR TETRA assay, ANTAGONIST mode, stimulation with 3.1 U/mL trypsin. The settings on record: HT-29 cells, antagonist mode. It counts as cell-based. The method in brief: as §1

Assay [3] concerns Thrombin-stimulated Ca2+ response in HT-29 cells. In words: Ca FLIPR TETRA assay, ANTAGONIST mode, stimulation with 1 U/mL Thrombin. It counts as cell-based, human. The settings on record: Homo sapiens, HT-29 cells, antagonist mode. The method in brief: as §1
The test system of assay [4] is UTP-stimulated Ca2+ response in HT-29 cells. In words: Ca FLIPR TETRA assay, ANTAGONIST mode, stimulation with 0.6 μM UTP. In kind it is cell-based, human. The conditions noted are these: Homo sapiens, HT-29 cells, antagonist mode. The method in brief: as §1
Where [5] appears, read: stimulation with 3.1 U/mL trypsin.
[6] abbreviates: stimulation with 1 U/mL Thrombin.

Regarding `COC(=O)[C@H]1CC[C@H](C(=O)N2CCN(C(=O)c3cn4nc(-c5ccc(Cl)cc5)cc(C(C)C)c4n3)C(C)(C)C2)CC1` [Compound I-546], the IC50 (in general, the concentration at which inhibition is half-maximal) in assay [1] (stimulation with 8 μM SLIGKV) was 1.8 nM; in assay [2] (setting [5]), 1.6 nM; in assay [3] (setting [6]), more than 1000 nM; in assay [4] (stimulation with 0.6 μM UTP), more than 1000 nM.
For the molecule `C[C@H]1C(=O)NCCN1C(=O)c1cn2nc(-c3ccc(F)cc3)cc(C(C)(C)C)c2n1` [Compound I-547], the IC50 was 635 nM in assay [1] (stimulation with 8 μM SLIGKV), more than 1000 nM in assay [2] (setting [5]), more than 1000 nM in assay [3] (setting [6]) and more than 1000 nM in assay [4] (stimulation with 0.6 μM UTP).
On to `C[C@@H]1C(=O)NCCN1C(=O)c1cn2nc(-c3ccc(F)cc3)cc(C(C)(C)C)c2n1` [Compound I-548], for which the IC50 in assay [1] (stimulation with 8 μM SLIGKV) is 545 nM; in assay [2] (setting [5]), more than 1000 nM; in assay [3] (setting [6]), more than 1000 nM; in assay [4] (stimulation with 0.6 μM UTP) it was more than 1000 nM.
With `CC(C)c1cc(-c2ccc(Cl)cc2)nn2cc(C(=O)N3CCN(C(=O)[C@H]4CC[C@H](C(=O)O)CC4)CC3(C)C)nc12` [Compound I-549], the 50% inhibitory concentration (IC50) was 27.5 nM in assay [1] (stimulation with 8 μM SLIGKV), 57.5 nM in assay [2] (setting [5]), more than 1000 nM in assay [3] (setting [6]) and more than 1000 nM in assay [4] (stimulation with 0.6 μM UTP).
As to `COC(=O)[C@H]1CC[C@@H](C(=O)N2CCN(C(=O)c3cn4nc(C(C)C)cc(C(C)C)c4n3)C(C)(C)C2)CC1` [Compound I-550], the IC50 in assay [1] (stimulation with 8 μM SLIGKV) was 773 nM; in assay [2] (setting [5]), 1050 nM; in assay [3] (setting [6]) it was more than 30000 nM; in assay [4] (stimulation with 0.6 μM UTP), more than 30000 nM.
Regarding `CC(C)c1cc(C(C)C)c2nc(C(=O)N3CCN(C(=O)C4CCC(C(=O)O)CC4)CC3(C)C)cn2n1` (stereo not drawn) [Compound I-551, 4-[4-(6,8-diisopropylimidazo[1,2-b]pyridazine-2-carbonyl)-3,3-dimethyl-piperazine-1-carbonyl]cyclohexanecarboxylic acid], the IC50 in assay [1] (stimulation with 8 μM SLIGKV) is 970 nM; in assay [2] (setting [5]) it was 1500 nM; in assay [3] (setting [6]), more than 30000 nM; in assay [4] (stimulation with 0.6 μM UTP) it was more than 30000 nM.
`Cc1n[nH]c(C(=O)N2CCN(C(=O)c3cn4nc(-c5ccc(F)cc5)cc(C(C)C)c4n3)CC2)n1` [Compound I-552]: the 50% inhibitory concentration (IC50) is 720 nM in assay [1] (stimulation with 8 μM SLIGKV), 720 nM in assay [2] (setting [5]), more than 1000 nM in assay [3] (setting [6]) and more than 1000 nM in assay [4] (stimulation with 0.6 μM UTP).
For `CC(C)c1cc(-c2ccc(Cl)cc2)nn2cc(C(=O)N3CCN(C(=O)[C@H]4C[C@@H](C(=O)O)C4)CC3(C)C)nc12` [Compound I-553], the IC50 in assay [1] (stimulation with 8 μM SLIGKV) is 24 nM; in assay [2] (setting [5]), 49.5 nM; in assay [3] (setting [6]), more than 1000 nM; in assay [4] (stimulation with 0.6 μM UTP) it was more than 1000 nM.
As to `CC(C)c1cc(-c2ccc(Cl)cc2)nn2cc(C(=O)N3CCN(C(=O)[C@H]4C[C@H](C(=O)O)C4)CC3(C)C)nc12` [Compound I-554], the IC50 is 9.3 nM in assay [1] (8 μM SLIGKV), 11.2 nM in assay [2] (3.1 U/mL trypsin), more than 1000 nM in assay [3] (1 U/mL Thrombin) and more than 1000 nM in assay [4] (0.6 μM UTP).
Turning to `CC(C)(C)c1cc(-c2ccc(F)cc2)nn2cc(C(=O)N3CCN(C(=O)[C@H]4C[C@@H](C(=O)O)C4)CC3(C)C)nc12` [Compound I-555, (1S,3S)-3-(4-(8-(tert-butyl)-6-(4-fluorophenyl)imidazo[1,2-b]pyridazine-2-carbonyl)-3,3-dimethylpiperazine-1-carbonyl)cyclobutane-1-carboxylic acid], the 50% inhibitory concentration (IC50) was 4.2 nM in assay [1] (8 μM SLIGKV), 7.8 nM in assay [2] (3.1 U/mL trypsin), more than 1000 nM in assay [3] (1 U/mL Thrombin) and more than 1000 nM in assay [4] (0.6 μM UTP).
For `CC(C)(C)c1cc(-c2ccc(F)cc2)nn2cc(C(=O)N3CCN(C(=O)[C@H]4C[C@H](C(=O)O)C4)CC3(C)C)nc12` [Compound I-556, (1R,3R)-3-(4-(8-(tert-butyl)-6-(4-fluorophenyl)imidazo[1,2-b]pyridazine-2-carbonyl)-3,3-dimethylpiperazine-1-carbonyl)cyclobutane-1-carboxylic acid], the IC50 in assay [1] (8 μM SLIGKV) is 9 nM; in assay [2] (3.1 U/mL trypsin) it was 21 nM; in assay [3] (1 U/mL Thrombin), more than 1000 nM; in assay [4] (0.6 μM UTP) it was more than 1000 nM.
`CC(C)(C)c1cc(-c2ccc(F)cc2)nn2cc(C(=O)N3CCN(C(=O)/C=C/C(=O)O)CC3(C)C)nc12` [Compound I-558]: the IC50 in assay [1] (8 μM SLIGKV) is 18.5 nM; in assay [2] (3.1 U/mL trypsin), 43.5 nM; in assay [3] (1 U/mL Thrombin) it was more than 1000 nM; in assay [4] (0.6 μM UTP) it was more than 1000 nM.
For the molecule `CC(C)(C)c1cc(-c2ccc(F)cc2)nn2cc(C(=O)N3CCN(C(=O)C45CC(C(=O)O)(C4)C5)CC3(C)C)nc12` [Compound I-559], the half-inhibitory concentration (IC50) in assay [1] (8 μM SLIGKV) is 20 nM; in assay [2] (3.1 U/mL trypsin), 51.5 nM; in assay [3] (1 U/mL Thrombin), more than 1000 nM; in assay [4] (0.6 μM UTP), more than 1000 nM.
On to `CC(C)(C)c1cc(-c2ccc(F)cc2)nn2cc(C(=O)N3CCN(C(=O)CCC(=O)O)CC3(C)C)nc12` [Compound I-560, 4-(4-(8-(tert-butyl)-6-(4-fluorophenyl)imidazo[1,2-b]pyridazine-2-carbonyl)-3,3-dimethylpiperazin-1-yl)-4-oxobutanoic acid], for which the half-maximal inhibitory concentration (IC50) in assay [1] (8 μM SLIGKV) is 4.9 nM; in assay [2] (3.1 U/mL trypsin), 9.3 nM; in assay [3] (1 U/mL Thrombin), more than 1000 nM; in assay [4] (0.6 μM UTP), more than 1000 nM.
Take `CC(C)(CC(=O)N1CCN(C(=O)c2cn3nc(-c4ccc(F)cc4)cc(C(C)(C)C)c3n2)C(C)(C)C1)C(=O)O` [Compound I-561, 4-(4-(8-(tert-butyl)-6-(4-fluorophenyl)imidazo[1,2-b]pyridazine-2-carbonyl)-3,3-dimethylpiperazin-1-yl)-2,2-dimethyl-4-oxobutanoic acid]: the half-maximal inhibitory concentration (IC50) in assay [1] (8 μM SLIGKV) is 0.5 nM; in assay [2] (3.1 U/mL trypsin) it was 0.7 nM; in assay [3] (1 U/mL Thrombin), more than 1000 nM; in assay [4] (0.6 μM UTP), more than 1000 nM.
Regarding `CC(C)(C)c1cc(-c2ccc(F)cc2)nn2cc(C(=O)N3CCN(C(=O)C4(C(=O)O)CC4)CC3(C)C)nc12` [Compound I-562], the IC50 is 28 nM in assay [1] (8 μM SLIGKV), 128 nM in assay [2] (3.1 U/mL trypsin), more than 1000 nM in assay [3] (1 U/mL Thrombin) and more than 1000 nM in assay [4] (0.6 μM UTP).
As to `CC(C)(C)c1cc(-c2ccc(F)cc2)nn2cc(C(=O)N3CN(C(C)(C)C)C(=O)C3(C)C)nc12` [Compound I-564], the 50% inhibitory concentration (IC50) was 125 nM in assay [1] (8 μM SLIGKV), 193 nM in assay [2] (3.1 U/mL trypsin), more than 1000 nM in assay [3] (1 U/mL Thrombin) and more than 1000 nM in assay [4] (0.6 μM UTP).
Regarding `CC(C)(C)c1cc(-c2ccc(F)cc2)nn2cc(C(=O)N3CN(Cc4ccccc4)C(=O)C3(C)C)nc12` [Compound I-565], the half-inhibitory concentration (IC50) is 43 nM in assay [1] (8 μM SLIGKV), 42 nM in assay [2] (3.1 U/mL trypsin), more than 1000 nM in assay [3] (1 U/mL Thrombin) and more than 1000 nM in assay [4] (0.6 μM UTP).
For `CC(C)(C)c1cc(-c2ccc(F)cc2)nn2cc(C(=O)N3CCN(C(=O)CCC#N)CC3(C)C)nc12` [Compound I-566], the IC50 in assay [1] (8 μM SLIGKV) is 3 nM; in assay [2] (3.1 U/mL trypsin), 5.1 nM; in assay [3] (1 U/mL Thrombin), more than 1000 nM; in assay [4] (0.6 μM UTP), more than 1000 nM.
Regarding `CC1(C)C(=O)NCCN1C(=O)c1cn2nc(-c3ccc(F)cc3)cc(-c3ccsc3)c2n1` [Compound I-567, 4-(6-(4-fluorophenyl)-8-(thiophen-3-yl)imidazo[1,2-b]pyridazine-2-carbonyl)-3,3-dimethylpiperazin-2-one], the concentration for half-maximal inhibition (IC50) in assay [1] (8 μM SLIGKV) is 23 nM; in assay [2] (3.1 U/mL trypsin), 49.8 nM; in assay [3] (1 U/mL Thrombin) it was more than 1000 nM; in assay [4] (0.6 μM UTP), more than 1000 nM.
With `CC1(C)C(=O)NCCN1C(=O)c1cn2nc(-c3ccc(F)cc3)cc(-c3cccnc3)c2n1` [Compound I-568], the IC50 is 520 nM in assay [1] (8 μM SLIGKV), 620 nM in assay [2] (3.1 U/mL trypsin), more than 1000 nM in assay [3] (1 U/mL Thrombin) and more than 1000 nM in assay [4] (0.6 μM UTP).
With `CC1(C)C(=O)NCCN1C(=O)c1cn2nc(-c3ccc(F)cc3)cc(-c3ccncc3)c2n1` [Compound I-569], the IC50 in assay [1] (8 μM SLIGKV) was 395 nM; in assay [2] (3.1 U/mL trypsin), 640 nM; in assay [3] (1 U/mL Thrombin), more than 1000 nM; in assay [4] (0.6 μM UTP) it was more than 1000 nM.
Take `CC(C)(C)c1cc(-c2ccc(Cl)cc2)nn2cc(C(=O)N3CCN(C(=O)[C@H]4C[C@H](C(=O)O)C4)CC3(C)C)nc12` [Compound I-570]: the IC50 in assay [1] (8 μM SLIGKV) was 1.6 nM; in assay [2] (3.1 U/mL trypsin) it was 2.2 nM; in assay [3] (1 U/mL Thrombin), more than 1000 nM; in assay [4] (0.6 μM UTP) it was more than 1000 nM.
As for `CC(C)(CC(=O)O)C(=O)N1CCN(C(=O)c2cn3nc(-c4ccc(F)cc4)cc(C(C)(C)C)c3n2)C(C)(C)C1` [Compound I-571], the 50% inhibitory concentration (IC50) in assay [1] (8 μM SLIGKV) was 1.1 nM; in assay [2] (3.1 U/mL trypsin), 3.3 nM; in assay [3] (1 U/mL Thrombin) it was 980 nM; in assay [4] (0.6 μM UTP), more than 1000 nM.
